Results reported in patent US12643910B2, “Substituted pyrazolo[3,4-b]pyridines as ectonucleotide pyrophosphatase/phosphodiesterase 1 (ENPP1) modulators” (SANFORD BURNHAM PREBYS MEDICAL DISCOVERY INSTITUTE, priority 2019, dated 2026).

What was measured:
[1] = target: T1, human ENPP1 (Homo sapiens, UniProt P22413); assay: ENPP1 assay with ATP substrate (Transcreener AMP2/GMP2 TR-FRET); type: biochemical; settings: 1 hour at room temperature
T1 construct: made in house
T1 sequence (P22413 1-925): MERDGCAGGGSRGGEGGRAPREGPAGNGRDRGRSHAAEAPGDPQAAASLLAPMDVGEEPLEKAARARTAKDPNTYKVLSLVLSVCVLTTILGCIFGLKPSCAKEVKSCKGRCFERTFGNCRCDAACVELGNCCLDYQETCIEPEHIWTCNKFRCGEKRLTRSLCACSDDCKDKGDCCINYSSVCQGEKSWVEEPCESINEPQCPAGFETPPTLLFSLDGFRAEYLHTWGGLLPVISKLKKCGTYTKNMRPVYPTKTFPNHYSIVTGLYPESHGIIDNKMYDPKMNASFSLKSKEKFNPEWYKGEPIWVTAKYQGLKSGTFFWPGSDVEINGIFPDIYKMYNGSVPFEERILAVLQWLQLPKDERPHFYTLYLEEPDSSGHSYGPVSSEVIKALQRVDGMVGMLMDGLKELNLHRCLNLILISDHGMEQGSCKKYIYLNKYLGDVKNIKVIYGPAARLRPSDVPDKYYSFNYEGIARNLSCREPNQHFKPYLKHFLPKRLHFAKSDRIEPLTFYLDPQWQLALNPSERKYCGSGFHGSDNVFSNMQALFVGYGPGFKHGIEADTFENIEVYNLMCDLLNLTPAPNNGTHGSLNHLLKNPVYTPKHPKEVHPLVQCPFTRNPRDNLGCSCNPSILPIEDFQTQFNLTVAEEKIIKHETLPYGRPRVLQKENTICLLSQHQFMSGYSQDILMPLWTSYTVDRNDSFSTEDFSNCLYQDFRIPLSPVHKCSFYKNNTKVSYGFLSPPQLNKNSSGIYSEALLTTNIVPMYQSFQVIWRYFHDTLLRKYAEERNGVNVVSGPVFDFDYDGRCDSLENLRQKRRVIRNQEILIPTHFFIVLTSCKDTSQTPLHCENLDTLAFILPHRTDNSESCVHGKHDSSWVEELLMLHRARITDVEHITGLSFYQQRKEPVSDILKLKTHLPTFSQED
From the text: Example B1: ENPP1 Assay with ATP Substrate
Ectonucleotide pyrophosphatase/phosphodiesterase 1 (ENPP1) hydrolyzes ATP, breaking it down into 5′-AMP and pyrophosphate. The 5′-AMP formed from the reaction is detected by Transcreener® AMP2/GMP2 TR-FRET Assay (Bellbrook), containing AMP-tracer (HiLyte 647) and anti-AMP Terbium (Tb) donor. 5′-AMP generated in the reaction competes with AMP-tracer for binding with Anti-AMP Tb donor, and decreases TR-FRET signal.
Different concentrations of ENPP1 inhibitors are added to dry assay plate, followed by 2 μl 300 nM ATP. The reaction is initiated with the addition of 2 μl 8.5 μM human ENPP1 (generated by SBP Protein group). The assay reaction mixture contains a buffer of 50 mM Tris, pH 7.5, 1 mM TCEP, 2 mM MgCl2, 0.005% Tween 20, and 1% DMSO. The reaction is stopped after 1 hour at room temperature by adding 2 μL of 2 nM AMP-tracer and 2 μl of 2 nM Anti-AMP Tb donor in the 50 mM Tris, pH 7.5, buffer containing 20 mM EDTA and 0.1% Prionex. After 2 hour additional incubation at room temperature, the generated signal is measured using BMG Lab PHERASTAR instrument. 100% activity control samples (containing enzyme, substrate, buffer: MAX) and no enzyme control samples (containing substrate and buffer: MIN) are utilized to calculate percent inhibition (%) for each compound concentration well (COMPOUND) as follows.
The IC50 values are determined by fitting the inhibition curves with 2-parameter variable slope model in Graphpad Prism software using percent inhibition vs compound concentration data: […]

[2] = target: T2, ENPP3 (Homo sapiens, UniProt O14638); assay: ENPP3 Km ATP assay; type: biochemical; settings: ATP at Km
T2 sequence (O14638 1-875): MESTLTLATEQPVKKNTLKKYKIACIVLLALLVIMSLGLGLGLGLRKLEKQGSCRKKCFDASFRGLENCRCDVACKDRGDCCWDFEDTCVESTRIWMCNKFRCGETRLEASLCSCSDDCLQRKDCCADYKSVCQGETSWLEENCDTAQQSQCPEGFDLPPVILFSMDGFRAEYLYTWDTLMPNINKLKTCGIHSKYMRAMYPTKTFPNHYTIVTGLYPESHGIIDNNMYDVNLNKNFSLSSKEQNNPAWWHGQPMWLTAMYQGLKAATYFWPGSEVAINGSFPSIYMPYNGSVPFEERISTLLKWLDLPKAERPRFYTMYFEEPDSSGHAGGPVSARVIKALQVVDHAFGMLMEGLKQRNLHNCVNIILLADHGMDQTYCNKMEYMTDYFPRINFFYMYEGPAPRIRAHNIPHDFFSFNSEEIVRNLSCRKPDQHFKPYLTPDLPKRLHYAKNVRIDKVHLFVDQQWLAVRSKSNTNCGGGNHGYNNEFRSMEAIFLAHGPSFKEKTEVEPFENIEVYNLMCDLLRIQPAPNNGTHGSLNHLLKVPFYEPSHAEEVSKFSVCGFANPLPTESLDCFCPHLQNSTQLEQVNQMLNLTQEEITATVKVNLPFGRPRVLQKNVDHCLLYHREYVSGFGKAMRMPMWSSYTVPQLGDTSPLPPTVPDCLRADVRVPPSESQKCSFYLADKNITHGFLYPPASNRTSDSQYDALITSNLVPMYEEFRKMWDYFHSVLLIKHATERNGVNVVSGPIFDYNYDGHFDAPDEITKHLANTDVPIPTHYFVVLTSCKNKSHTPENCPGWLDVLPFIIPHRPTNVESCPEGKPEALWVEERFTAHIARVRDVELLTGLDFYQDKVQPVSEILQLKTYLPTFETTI

`NS(=O)(=O)c1ccc(CNc2nc(-c3ccccn3)nc3scc(-c4cccnc4)c23)cc1` [Example 1.22, 4-(((2-(Pyridin-2-yl)-5-(pyridin-3-yl)thieno[2,3-d]pyrimidin-4-yl)amino)methyl)-benzenesulfonamide] was tested, and the IC50 [1] was < 0.1 µM and the IC50 [2] was 1 to 20 µM.

`NS(=O)(=O)c1ccc(CNc2nc(-c3ccccn3)nc3scc(-c4ccccn4)c23)cc1` [Example 1.23, 4-(((2,5-Di(pyridin-2-yl)thieno[2,3-d]pyrimidin-4-yl)amino)methyl)benzenesulfonamide] was tested, and the IC50 [1] was 0.1 to 1 µM and the IC50 [2] was 1 to 20 µM.

`NS(=O)(=O)c1ccc(CNc2nc(-c3ccccc3)nc3scc(-c4ccccc4)c23)cc1` [Example 1.24, 4-(((2,5-Diphenylthieno[2,3-d]pyrimidin-4-yl)amino)methyl)benzenesulfonamide] was tested, and the IC50 [1] was > 20 µM and the IC50 [2] was > 20 µM.

For `CN1CCN(c2nc(NCc3ccc(S(N)(=O)=O)cc3)c3c(-c4ccccc4)csc3n2)CC1` [Example 1.25, 4-(((2-(4-Methylpiperazin-1-yl)-5-phenylthieno[2,3-d]pyrimidin-4-yl)amino)methyl)-benzenesulfonamide], the IC50 [1] was < 0.1 µM and the IC50 [2] was < 0.1 µM.

For `NS(=O)(=O)c1ccc(CNc2nc(NC3CC3)nc3scc(-c4ccccc4)c23)cc1` [Example 1.26, 4-(((2-(Cyclopropylamino)-5-phenylthieno[2,3-d]pyrimidin-4-yl)amino)methyl)-benzenesulfonamide], the IC50 [1] was < 0.1 µM and the IC50 [2] was < 0.1 µM.

In the case of `NS(=O)(=O)c1ccc(CNc2nc(-c3ccccc3)nc3scc(-c4ccccc4)c23)s1` [Example 1.27, 5-(((2,5-Diphenylthieno[2,3-d]pyrimidin-4-yl)amino)methyl)thiophene-2-sulfonamide], the IC50 [1] is reported as 1 to 20 µM and the IC50 [2] is reported as > 20 µM.

`NS(=O)(=O)c1ccc(CNc2ncnc3scc(-c4ccccc4)c23)s1` [Example 1.28, 5-(((5-Phenylthieno[2,3-d]pyrimidin-4-yl)amino)methyl)thiophene-2-sulfonamide] was tested, and the IC50 [1] was 1 to 20 µM and the IC50 [2] was > 20 µM.

In the case of `NS(=O)(=O)c1ccc(CNc2nc(-c3ccncc3)nc3scc(-c4ccccc4)c23)s1` [Example 1.29, 5-(((5-Phenyl-2-(pyridin-4-yl)thieno[2,3-d]pyrimidin-4-yl)amino)methyl)thiophene-2-sulfonamide], the IC50 [1] is reported as > 20 µM and the IC50 [2] is reported as > 20 µM.

In the case of `NS(=O)(=O)c1ccc(CNc2nc(-c3cccnc3)nc3scc(-c4ccccc4)c23)s1` [Example 1.30, 5-(((5-Phenyl-2-(pyridin-3-yl)thieno[2,3-d]pyrimidin-4-yl)amino)methyl)thiophene-2-sulfonamide], the IC50 [1] is reported as 1 to 20 µM and the IC50 [2] is reported as > 20 µM.

In the case of `NS(=O)(=O)c1ccc(CNc2nc(-c3ccccn3)nc3scc(-c4ccccc4)c23)s1` [Example 1.31, 5-(((5-Phenyl-2-(pyridin-2-yl)thieno[2,3-d]pyrimidin-4-yl)amino)methyl)thiophene-2-sulfonamide], the IC50 [1] is reported as < 0.1 µM and the IC50 [2] is reported as 0.1 to 1 µM.

`Cc1ccc(CNc2nc(-c3ccccn3)nc3scc(-c4ccccc4)c23)o1` [Example 1.32, N-((5-methylfuran-2-yl)methyl)-5-phenyl-2-(pyridin-2-yl)thieno[2,3-d]pyrimidin-4-amine] was tested, and the IC50 [1] was 1 to 20 µM and the IC50 [2] was > 20 µM.

`c1ccc(-c2csc3nc(-c4ccccn4)nc(NCc4cccs4)c23)cc1` [Example 1.33, (5-Phenyl-2-pyridin-2-yl-thieno[2,3-d]pyrimidin-4-yl)-thiophen-2-ylmethyl-amine] gave an IC50 [1] of 0.1 to 1 µM and an IC50 [2] of 1 to 20 µM.

For `NS(=O)(=O)c1ccc(CNc2nc(N3CCOCC3)nc3scc(-c4ccccc4)c23)cc1` [Example 1.38, 4-(((2-Morpholino-5-phenylthieno[2,3-d]pyrimidin-4-yl)amino)methyl)-benzenesulfonamide], the IC50 [1] was < 0.1 µM and the IC50 [2] was < 0.1 µM.

In the case of `NS(=O)(=O)c1ccc(CNc2nc(N3CCCCC3)nc3scc(-c4ccccc4)c23)cc1` [Example 1.39, 4-(((5-Phenyl-2-(piperidin-1-yl)thieno[2,3-d]pyrimidin-4-yl)amino)methyl)-benzenesulfonamide], the IC50 [1] is reported as 0.1 to 1 µM and the IC50 [2] is reported as 0.1 to 1 µM.
